Data published in patent US20050009061A1, “Anther-specific genes, their promoters, and uses of the same” (priority 2003, published 2005).

Experiments:
Type in all cases: in vivo, rice (Nipponbare)
Conditions in all cases: mRNA in rice leaf sheaths after hormone treatment, Northern blotting (FIG. 2)
[1] = tested on: eight types of tubulin (β-tubulin mRNA expression in rice leaf sheaths); experiment: Northern blotting of hormone specificity in rice leaf sheaths, all eight β-tubulins
Description: (§1) After treatment with each hormone, Northern blotting using specific probes was performed to confirm the mRNA expression in rice leaf sheaths. C: No treatment; GA: gibberellin; BL: brassinolide; ABA: abscisic acid; IAA: auxin; BA: cytokinin.
(§2) Rice (variety: Nipponbare) was grown under conditions of 600 μmol/m^2s white fluorescent light at 25° C., 75% humidity, and under a twelve-hour day/night cycle. Commercially available high-grade gibberellin (GA3), brassinolide (BL), auxin (IAA), cytokinin (BA), and abscisic acid (ABA) were used. RNA for RNA blotting analysis was extracted using Chomczynski and Sacchi's method (Chomczynski, P. and Sacchi, N., 1987, Anal. Biochem., 162: 156-159). An oligotex-dT-30 mRNA purification kit (Takara) was used to prepare mRNA for microarray analysis.
(§3) Primers were constructed specifically for eight types of β-tubulin, respectively. PCR was carried out using each β-tubulin EST clone as a template, and using a T3 primer and a primer specific to the 3′-untranslated region of each β-tubulin. […]
(§4) About 0.5 g of tissue samples rapid frozen in liquid nitrogen was ground to a powder using a mortar and a pastle, and total RNA was prepared by the methods of Chomczynski and Sacchi (Chomczynski, P. and Sacchi, N., 1987, Anal. Biochem., 162: 156-159). […] The expression amount was analyzed using image analysis apparatus (Amersham Pharmacia Biotech).

OsTUB6 = experiment: Northern blotting of hormone specificity in rice leaf sheaths, OsTUB6
Description: as §1, §2, §3, §4

OsTUB5 = experiment: Northern blotting of hormone specificity in rice leaf sheaths, OsTUB5
Description: as §1, §2, §3, §4

OsTUB7 = experiment: Northern blotting of hormone specificity in rice leaf sheaths, OsTUB7
Description: as §1, §2, §3, §4

CC1=CC(=O)CC(C)(C)[C@@]1(O)/C=C/C(C)=C\C(=O)O [abscisic acid]
expression of all eight types of tubulin [1]: suppressed

CC(C)[C@H](C)[C@@H](O)[C@H](O)[C@@H](C)[C@H]1CC[C@H]2[C@@H]3COC(=O)[C@H]4C[C@H](O)[C@H](O)C[C@]4(C)[C@H]3CC[C@]12C [brassinolide]
expression of OsTUB6 (OsTUB6): increased | expression of OsTUB5 (OsTUB5): increased | expression of OsTUB7 (OsTUB7): increased

gibberellin
expression of OsTUB6 (OsTUB6): markedly increased | expression of OsTUB5 (OsTUB5): markedly increased | expression of OsTUB7 (OsTUB7): markedly increased
